Experimental data: patent US20250101034A1, “COMPOSITIONS USEFUL FOR MODULATING SPLICING” (SKYHAWK THERAPEUTICS, INC., priority 2021, published 2025)

Assays:
[1] = system: ATXN3 transcripts containing exon 4 (E4E5); assay: ATXN3 quantitative splicing assay (qPCR, SK-N-MC cells); format: cell-based; details: Homo sapiens, 24 h treatment, qPCR E4E5 primers/probe, read-out: ATXN3 Potency - Splicing E4E5 IC50
In short: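 SK-N-MC cells treated 24 h with compound (30 μM to 0.6 nM, 0.3% DMSO) 24 h after plating; lysates reverse-transcribed and analysed by TaqMan qPCR. E4E5 primers/probe detect exon 4–containing transcripts; E8E9 measures total ATXN3, alongside exon 4–skipped transcript detection.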

total ATXN3 protein = assay: ATXN3 total protein assay (MSD, SK-N-MC cells); format: cell-based, Human; details: 48 hours incubation, read-out: ATXN3 Potency - Protein IC50
In short: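 SK-N-MC human neuroblastoma cells treated with compound (30 μM to 0.6 nM) for 48 h, then lysed with protease inhibitors. Total ATXN3 measured by MSD sandwich immunoassay (mouse capture, rabbit detection antibodies, anti-rabbit MSD-ST secondary), quantified against recombinant ATXN3 standards.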

| Structure (SMILES) | IC50 [1] [µM] | IC50 (total ATXN3 protein) [µM] |
| --- | --- | --- |
| CCc1csc2c(NCc3cccs3)cnnc12 [Compound 40, 7-ethyl-N-[(thiophen-2-yl)methyl]thieno[3,2-c]pyridazin-4-amine] | 10 to 40 | 10 to 40 |
| Cc1c(C[C@@H](N)COC(F)F)sc2c(NCc3cccs3)cnnc12 [Compound 133, 6-[(2R)-2-amino-3-(difluoromethoxy)propyl]-7-methyl-N-[(thiophen-2-y1)methyl]thieno[3,2-c]pyridazin-4-amine] | 0.501 to 5 | 0.501 to 5 |
| Cc1c(C[C@H](C)N)sc2c(NCc3ccco3)cnnc12 [Compound 2, 6-[(2S)-2-aminopropyl]-N-(furan-2-ylmethyl)-7-methylthieno[3,2-c]pyridazin-4-amine] | 0.501 to 5 | 0.501 to 5 |
| C[C@H](N)Cc1sc2c(NCc3cccs3)cnnc2c1C1CC1 [Compound 80, 6-[(2S)-2-aminopropyl]-7-cyclopropyl-N-[(thiophen-2-yl)methyl]thieno[3,2-c]pyridazin-4-amine] | 0.501 to 5 | 0.501 to 5 |
| Cc1c(C(C)CO)sc2c(NCc3cccs3)cnnc12 (centres unmarked) [Compound 54, 2-{7-methyl-4-[(thiophen-2-ylmethyl)amino]thieno[3,2-c]pyridazin-6-yl}propan-1-ol] | 10 to 40 | 10 to 40 |
| Cc1c(C[C@@H](N)CCF)sc2c(NCc3ccco3)cnnc12 [Compound 31, 6-[(2S)-2-amino-4-fluorobutyl]-N-[(furan-2-yl)methyl]-7-methylthieno[3,2-c]pyridazin-4-amine] | 0.501 to 5 | 0.501 to 5 |
| Cc1c(C[C@H](C)N)sc2c(NCc3csc(F)c3)cnnc12 [Compound 56, 6-[(2S)-2-aminopropyl]-N-[(5-fluorothiophen-3-yl)methyl]-7-methylthieno[3,2-c]pyridazin-4-amine] | 10 to 40 | 10 to 40 |
| Cc1c(C[C@H]2CCN2)sc2c(NCc3cccs3)cnnc12 [Compound 72, 6-{[(2R)-azetidin-2-yl]methyl}-7-methyl-N-[(thiophen-2-yl)methyl]thieno[3,2-c]pyridazin-4-amine] | 10 to 40 | 10 to 40 |
| C[C@H](N)Cc1sc2c(N[C@@H](C)c3cccs3)cnnc2c1Br [Compound 112, 6-[(2S)-2-aminopropyl]-7-bromo-N-[(1S)-1-(thiophen-2-yl)ethyl]thieno[3,2-c]pyridazin-4-amine] | 10 to 40 | 10 to 40 |
| Cc1c(C(C)(C)O)sc2c(NCc3cccs3)cnnc12 [Compound 65, 2-{7-methyl-4-[(thiophen-2-ylmethyl)amino]thieno [3,2-c]pyridazin-6-yl}propan-2-ol] | 10 to 40 | 10 to 40 |
| Cc1c(C[C@@H](C)N)sc2c(NCc3cccs3)cnnc12 [Compound 49, 6-[(2R)-2-aminopropyl]-7-methyl-N-[(thiophen-2-yl)methyl]thieno[3,2-c]pyridazin-4-amine] | 10 to 40 | 10 to 40 |
| Cc1c(C[C@@H](N)CO)sc2c(NCc3ccsc3)cnnc12 [Compound 7, (2R)-2-amino-3-(7-methyl-4-{[(thiophen-3-yl)methyl]amino}thieno[3,2-c]pyridazin-6-yl)propan-1-ol] | 0.501 to 5 | 0.501 to 5 |
| C[C@H](N)Cc1sc2c(NCc3cccs3)cnnc2c1C#N [Compound 24, (S)-6-(2-aminopropyl)-4-((thiophen-2-ylmethyl)amino)thieno[3,2-c]pyridazine-7-carbonitrile] | 0.501 to 5 | 0.501 to 5 |
| Cc1c([C@H](C)[C@H](C)N)sc2c(NCc3cccs3)cnnc12 [Compound 26] | 10 to 40 | 10 to 40 |
| Cc1c(C[C@H](C)N)sc2c(NCc3ccsc3)cnnc12 [Compound 8, 6-[(2S)-2-aminopropyl]-7-methyl-N-[(thiophen-3-yl)methyl]thieno[3,2-c]pyridazin-4-amine] | 0.501 to 5 | 0.501 to 5 |
| Cc1c(C[C@H](C)N)sc2c(NCc3cccs3)c(Br)nnc12 [Compound 66, 6-[(2S)-2-aminopropyl]-3-bromo-7-methyl-N-[(thiophen-2-yl)methyl]thieno[3,2-c]pyridazin-4-amine] | 10 to 40 | 10 to 40 |
| C=C(C)Cc1sc2c(NCc3ccco3)cnnc2c1C [Compound 34, N-[(furan-2-yl)methyl]-7-methyl-6-(2-methylprop-2-en-1-yl)thieno[3,2-c]pyridazin-4-amine] | 10 to 40 | 10 to 40 |
| Cc1c(C[C@@H](N)C2CC2)sc2c(NCc3ccco3)cnnc12 [Compound 64, 6-[(2R)-2-amino-2-cyclopropylethyl]-N-[(furan-2-yl)methyl]-7-methylthieno[3,2-c]pyridazin-4-amine] | 5 to 10 | 5 to 10 |
| CC#Cc1c(C[C@H](C)N)sc2c(NCc3cccs3)cnnc12 [Compound 107, 6-[(2S)-2-aminopropyl]-7-(prop-1-yn-1-yl)-N-[(thiophen-2-yl)methyl]thieno[3,2-c]pyridazin-4-amine] | 0.101 to 0.5 | 0.101 to 0.5 |
| Cc1c(C[C@@H](N)CO)sc2c(NCc3sccc3F)cnnc12 [Compound 9, (2R)-2-amino-3-(4-{[(3-fluorothiophen-2-yl)methyl]amino}-7-methylthieno[3,2-c]pyridazin-6-yl)propan-1-ol] | 10 to 40 | 10 to 40 |
| Cc1nnc2c(C)csc2c1NCc1cccs1 [Compound 57, 3,7-dimethyl-N-[(thiophen-2-yl)methyl]thieno[3,2-c]pyridazin-4-amine] | 10 to 40 | 10 to 40 |
| Cc1c(C[C@H](C)N)sc2c(NCc3sccc3F)cnnc12 [Compound 10, 6-[(2S)-2-aminopropyl]-N-[(3-fluorothiophen-2-yl)methyl]-7-methylthieno[3,2-c]pyridazin-4-amine] | 0.501 to 5 | 0.501 to 5 |
| Cc1c(C[C@@H](N)C[C@@H]2CC2(F)F)sc2c(NCc3cccs3)cnnc12 [Compound 128, 6-[(2S)-2-amino-3-[(1R)-2,2-difluorocyclopropyl]propyl]-7-methyl-N-(thiophen-2-ylmethyl)thieno[3,2-c]pyridazin-4-amine] | 10 to 40 | 10 to 40 |
| Cc1c(CC(N)CC2(F)CC2)sc2c(NCc3cccs3)cnnc12 (centres unmarked) [Compound 117, 6-[2-amino-3-(1-fluorocyclopropyl)propyl]-7-methyl-N-[(thiophen-2-yl)methyl]thieno[3,2-c]pyridazin-4-amine] | 5 to 10 | 5 to 10 |
| COc1ccc(CNc2cnnc3c(C)c(C[C@H](C)N)sc23)s1 [Compound 76, 6-[(2S)-2-aminopropyl]-N-[(5-methoxythiophen-2-yl)methyl]-7-methylthieno[3,2-c]pyridazin-4-amine] | 10 to 40 | 10 to 40 |
| Cc1c(CC(N)CF)sc2c(NCc3cccs3)cnnc12 (centres unmarked) [Compound 141, 6-(2-amino-3-fluoropropyl)-7-methyl-N-[(thiophen-2-yl)methyl]thieno[3,2-c]pyridazin-4-amine] | 0.501 to 5 | 0.501 to 5 |
| N[C@@H](CO)Cc1sc2c(NCc3ccco3)cnnc2c1Br [Compound 95, (2R)-2-amino-3-(7-bromo-4-{[(furan-2-yl)methyl]amino}thieno[3,2-c]pyridazin-6-yl)propan-1-ol] | 0.501 to 5 | 0.101 to 0.5 |
| N[C@@H](CO)Cc1sc2c(NCc3cccs3)cnnc2c1Br [Compound 94, (2R)-2-amino-3-(7-bromo-4-{[(thiophen-2-yl)methyl]amino}thieno[3,2-c]pyridazin-6-yl)propan-1-ol] | 0.101 to 0.5 | 0.101 to 0.5 |
